Reference: ChEMBL document CHEMBL5126604, “Design, Synthesis, and Biological Evaluation of Pyrrole-2-carboxamide Derivatives as Mycobacterial Membrane Protein Large 3 Inhibitors for Treating Drug-Resistant Tuberculosis” (J Med Chem, 2022)
In brackets after ≈: the same amount, converted by molar mass.

Tests used:
[1] = tested on: Mycobacterium tuberculosis; assay: microbe, parasite or virus in culture; conditions: H37Rv, 168 h
Description: Antimycobacterial activity against Mycobacterium tuberculosis H37Rv assessed as inhibition of bacterial growth measured after 7 days by microplate alamar blue assay

[2] = tested on: Mycolicibacterium smegmatis; assay: Antimycobacterial activity against Mycobacterium smegmatis harboring MsmgdeltammpL3/pMVGHI-mmpL3tb mutant assessed as reduction in bacterial growth measured after 16 hrs […]; format: functional
[3] = tested on: Mycolicibacterium smegmatis; assay: Antimycobacterial activity against Mycobacterium smegmatis harboring MsmgdeltammpL3/pMVGHI-mmpL3tb G253E mutant assessed as reduction in bacterial growth measured after 16 hrs […]; format: functional
[4] = tested on: Mycobacterium tuberculosis; assay: Antimycobacterial activity against Mycobacterium tuberculosis mc2 6206 assessed as decrease in trehalose dimycolate measured after 16 hrs using [14C]acetate by TLC analysis; format: functional, organism-based; conditions: DDE = dose-dependent effect
[5] = tested on: Mycobacterium tuberculosis; assay: Antimycobacterial activity against Mycobacterium tuberculosis mc2 6206 assessed as decrease in mycolic acid transfer to cell wall arabinogalactan measured after 16 hrs using [14C]acetate by TLC analysis; format: functional, organism-based; conditions: dose 0.0625-1 µg/ml, DDE = dose-dependent effect
[6] = tested on: Mycobacterium tuberculosis; assay: microbe, parasite or virus in culture; conditions: H37Rv mc2 6206, 16 h
Description: Antimycobacterial activity against Mycobacterium tuberculosis H37Rv mc2 6206 assessed as reduction in bacterial growth measured after 16 hrs by TLC analysis

Vero = assay: Cytotoxicity against African green monkey vero cells assessed as reduction in cell viability measured after 48 hrs by MTT assay; format: functional, cell-based; conditions: Chlorocebus sabaeus
in vitro = conditions: monkey, Vero cells
Description: Selectivity index, ratio of IC50 for African green monkey vero cells to MIC for Mycobacterium tuberculosis H37Rv

[7] = Metabolic stability in mouse liver microsomes at 0.5 uM measured after 15 to 120 mins in presence of NADPH by LC-MS/MS analysis; format: ADME, Microsome; conditions: time 15-120 min
[8] = Metabolic stability in mouse liver microsomes at 0.5 uM measured after 15 to 120 mins in absence of NADPH by LC-MS/MS analysis; format: ADME, Microsome; conditions: time 15-120 min

Row | Compound | MIC90 [1] [µg/mL] | IC50 (Vero) [µg/mL] | further results
1 | NNC(=O)c1ccncc1 [ISONIAZID] | 0.04 (≈ 0.292 µM) | – | –
2 | O=C(NC1CCCCCCC1)c1cc(-c2ccc(F)cc2F)c[nH]1 | < 0.016 | – | MIC90 [2]: 0.25 µg/mL (≈ 0.752 µM); MIC=>90 [3]: 2 µg/mL (≈ 6.02 µM); inhibition [4]: Dde; inhibition [5]: Dde; MIC90 [6]: 0.125 µg/mL (≈ 0.376 µM)
3 | O=C(NC1CCCCCCC1)c1cc(-c2ccc(Cl)cc2)c[nH]1 | 0.24 (≈ 0.725 µM) | – | –
4 | CC1(C)CCC(NC(=O)c2cc(-c3ccc(Cl)cc3Cl)c[nH]2)CC1 | 0.5 (≈ 1.37 µM) | – | –
5 | CC1(C)CCC(NC(=O)c2cc3c(Cl)cc(Cl)cc3[nH]2)CC1 | 0.015 (≈ 0.0442 µM) | 10.5 (≈ 30.9 µM) | selectivity ratio (in vitro): 700
6 | O=C(NC1C2CC3CC(C2)CC1C3)c1cc(-c2ccncc2F)c[nH]1 (stereo unspecified) | 0.11 (≈ 0.324 µM) | – | selectivity ratio (in vitro): 415
7 | CN1CCN(C(=O)c2cc(-c3ccc(Cl)cc3Cl)c[nH]2)CC1 | 27.4 (≈ 81 µM) | – | –
8 | CN(C(=O)c1cc(-c2ccc(Cl)cc2Cl)cn1C)C1C2CC3CC(C2)CC1C3 (stereo unspecified) | > 32 | – | –
9 | O=C(NC1C2CC3CC(C2)CC1C3)c1cc(-c2ccc(C(F)(F)F)cc2C(F)(F)F)c[nH]1 (stereo unspecified) | 1.08 (≈ 2.37 µM) | – | –
10 | O=C(NC1C2CC3CC(C2)CC1C3)c1cc(-c2ccc(F)cc2F)c[nH]1 (stereo unspecified) | < 0.016 | – | Stability [7]: 61.4%; Stability [8]: Stable; selectivity ratio (in vitro): 900
11 | O=C(NC1C2CC3CC(C2)CC1C3)c1cc(-c2ccc(F)cc2)c[nH]1 (stereo unspecified) | < 0.016 | 12.6 (≈ 37.2 µM) | Stability [7]: 70.4%; Stability [8]: Stable; selectivity ratio (in vitro): 788
12 | O=C(NC1C2CC3CC(C2)CC1C3)c1cc(-c2ccccn2)c[nH]1 (stereo unspecified) | 0.12 (≈ 0.373 µM) | 47.3 (≈ 147 µM) | selectivity ratio (in vitro): 394
13 | O=C(NC1C2CC3CC(C2)CC1C3)c1cc(-c2cccnc2F)c[nH]1 (stereo unspecified) | 0.06 (≈ 0.177 µM) | > 64 | Stability [7]: 0%; Stability [8]: Stable
14 | O=C(c1cc(-c2ccc(Cl)cc2Cl)c[nH]1)N1CCCCC1 | 7.7 (≈ 23.8 µM) | – | –
15 | O=C(NC12CC3CC(CC(C3)C1)C2)c1cc(-c2ccc(Cl)cc2)c[nH]1 | 0.155 (≈ 0.437 µM) | – | –
16 | COc1cnccc1-c1c[nH]c(C(=O)NC2C3CC4CC(C3)CC2C4)c1 (stereo unspecified) | 0.24 (≈ 0.683 µM) | 58.8 (≈ 167 µM) | selectivity ratio (in vitro): 245
17 | O=C(c1cc(-c2ccc(Cl)cc2Cl)c[nH]1)N1CCCC1 | 9.8 (≈ 31.7 µM) | – | –
18 | O=C(NC1C2CC3CC(C2)CC1C3)c1cc(-c2ccccc2F)c[nH]1 (stereo unspecified) | < 0.016 | 12.6 (≈ 37.2 µM) | Stability [7]: 0%; Stability [8]: Stable; selectivity ratio (in vitro): 1320
19 | COc1cc(F)ccc1-c1c[nH]c(C(=O)NC2CCCCCCC2)c1 | < 0.016 | – | Stability [7]: 9.03%; Stability [8]: Stable
20 | O=C(NC1C2CC3CC(C2)CC1C3)c1cc(-c2ccncc2)c[nH]1 (stereo unspecified) | 0.45 (≈ 1.4 µM) | – | selectivity ratio (in vitro): 99

Row | Compound | MIC90 [1] [µg/mL] | IC50 (Vero) [µg/mL] | further results
21 | Nc1ncc(F)cc1-c1c[nH]c(C(=O)NC2C3CC4CC(C3)CC2C4)c1 (stereo unspecified) | 0.44 (≈ 1.24 µM) | 33.9 (≈ 95.6 µM) | selectivity ratio (in vitro): 77
22 | O=C(NC1C2CC3CC(C2)CC1C3)c1cc(-c2ccc(O)cc2F)c[nH]1 (stereo unspecified) | > 32 | – | –
23 | Cc1nc(F)ccc1-c1c[nH]c(C(=O)NC2C3CC4CC(C3)CC2C4)c1 (stereo unspecified) | 0.062 (≈ 0.175 µM) | 27.7 (≈ 78.4 µM) | Stability [7]: 32.3%; Stability [8]: Stable; selectivity ratio (in vitro): 447
24 | O=C(NC1CCCCC1)c1cc(-c2ccc(Cl)cc2Cl)c[nH]1 | 6.5 (≈ 19.3 µM) | – | –
25 | O=C(NC1C2CC3CC(C2)CC1C3)c1cc(-c2ccc(Cl)cc2)c[nH]1 (stereo unspecified) | 0.1 (≈ 0.282 µM) | 12.6 (≈ 35.5 µM) | selectivity ratio (in vitro): 126
26 | O=C(NC1CCCCCCC1)c1cc(-c2ccncc2Cl)c[nH]1 | 0.05 (≈ 0.151 µM) | – | –
27 | O=C(NC1C2CC3CC(C2)CC1C3)c1cc(-c2ccccc2Cl)c[nH]1 (stereo unspecified) | 0.24 (≈ 0.676 µM) | > 64 | –
28 | Cc1ccc(-c2c[nH]c(C(=O)NC3C4CC5CC(C4)CC3C5)c2)cn1 (stereo unspecified) | 1 (≈ 2.98 µM) | – | –
29 | O=C(NC1C2CC3CC(C2)CC1C3)c1cc(-c2ccc(Cl)cc2Cl)c[nH]1 (stereo unspecified) | 0.06 (≈ 0.154 µM) | – | MIC90 [2]: 1 µg/mL (≈ 2.57 µM); MIC=>90 [3]: >4 µg/mL; inhibition [4]: Dde; inhibition [5]: Dde; MIC90 [6]: 0.25 µg/mL (≈ 0.642 µM)
30 | COc1ncc(F)cc1-c1c[nH]c(C(=O)NC2C3CC4CC(C3)CC2C4)c1 (stereo unspecified) | 0.016 (≈ 0.0433 µM) | > 64 | Stability [7]: 1.97%; Stability [8]: Stable
31 | O=C(NC1CCCCCCC1)c1cc(-c2ccncc2F)c[nH]1 | 0.06 (≈ 0.19 µM) | – | –
32 | COc1ccc(-c2c[nH]c(C(=O)NC3C4CC5CC(C4)CC3C5)c2)cn1 (stereo unspecified) | 0.25 (≈ 0.711 µM) | – | selectivity ratio (in vitro): 137
33 | O=C(NC1CCC(F)(F)CC1)c1cc(-c2ccc(Cl)cc2Cl)c[nH]1 | 6.1 (≈ 16.3 µM) | – | –
34 | Cn1cc(-c2ccc(Cl)cc2Cl)cc1C(=O)NC1C2CC3CC(C2)CC1C3 (stereo unspecified) | 3.7 (≈ 9.17 µM) | – | –
35 | O=C(NC1C2CC3CC(C2)CC1C3)c1cc(-c2cncnc2)c[nH]1 (stereo unspecified) | 0.96 (≈ 2.98 µM) | – | –
36 | O=C(c1cc(-c2ccc(Cl)cc2Cl)c[nH]1)N1CCOCC1 | 14.7 (≈ 45.2 µM) | – | –
37 | O=C(NC12CC3CC(CC(C3)C1)C2)c1cc(-c2ccncc2F)c[nH]1 | 0.06 (≈ 0.177 µM) | – | –
38 | O=C(NC1C2CC3CC(C2)CC1C3)c1cc(-c2ccc(Cl)nc2Cl)c[nH]1 (stereo unspecified) | 0.24 (≈ 0.615 µM) | > 64 | –
39 | O=C(Nc1ccccc1)c1cc(-c2ccc(Cl)cc2Cl)c[nH]1 | > 32 | – | –
40 | O=C(NC1C2CC3CC(C2)CC1C3)c1cc(-c2cccnc2Cl)c[nH]1 (stereo unspecified) | 0.28 (≈ 0.787 µM) | > 64 | –

Row | Compound | MIC90 [1] [µg/mL] | IC50 (Vero) [µg/mL] | further results
41 | COc1ncc(-c2c[nH]c(C(=O)NC3C4CC5CC(C4)CC3C5)c2)cn1 (stereo unspecified) | 3.8 (≈ 10.8 µM) | – | –
42 | COc1cc(F)ccc1-c1c[nH]c(C(=O)NC23CC4CC(CC(C4)C2)C3)c1 | < 0.016 | – | Stability [7]: 23.3%; Stability [8]: Stable
43 | O=C(NC12CC3CC(CC(C3)C1)C2)c1cc(-c2ccncc2Cl)c[nH]1 | 0.03 (≈ 0.0843 µM) | – | Stability [7]: 42.7%; Stability [8]: Stable
44 | Cc1ccc(-c2c[nH]c(C(=O)NC3C4CC5CC(C4)CC3C5)c2)c(C)c1 (stereo unspecified) | 0.97 (≈ 2.78 µM) | – | –
45 | COc1cc(F)ccc1-c1c[nH]c(C(=O)NC2C3CC4CC(C3)CC2C4)c1 (stereo unspecified) | < 0.016 | 22 (≈ 59.7 µM) | selectivity ratio (in vitro): 1380
46 | O=C(NC12CC3CC(CC(C3)C1)C2)c1cc(-c2ccc(F)cc2)c[nH]1 | < 0.016 | – | –
47 | O=C(NC1CCCCCC1)c1cc(-c2ccc(Cl)cc2Cl)c[nH]1 | 1.9 (≈ 5.41 µM) | – | –
48 | CCCNC(=O)c1cc(-c2ccc(Cl)cc2Cl)c[nH]1 | 12.5 (≈ 42.1 µM) | – | –
49 | O=C(NC1C2CC3CC(C2)CC1C3)c1cc(-c2cccnc2)c[nH]1 (stereo unspecified) | 0.04 (≈ 0.124 µM) | 39.5 (≈ 123 µM) | selectivity ratio (in vitro): 988
50 | O=C(NC1CCCCCCC1)c1cc(-c2ccc(F)cc2)c[nH]1 | 0.03 (≈ 0.0954 µM) | – | –
51 | O=C(NC12CC3CC(CC(C3)C1)C2)c1cc(-c2ccc(Cl)cc2Cl)c[nH]1 | 0.058 (≈ 0.149 µM) | – | –
52 | O=C(NC1C2CC3CC(C2)CC1C3)c1cc(-c2ccc(Cl)nc2)c[nH]1 (stereo unspecified) | 0.24 (≈ 0.674 µM) | > 64 | –
53 | O=C(NC1C2CC3CC(C2)CC1C3)c1cc(-c2ccc(F)nc2)c[nH]1 (stereo unspecified) | 0.09 (≈ 0.265 µM) | – | selectivity ratio (in vitro): 391
54 | COc1ccc(-c2c[nH]c(C(=O)NC3C4CC5CC(C4)CC3C5)c2)c(F)c1 (stereo unspecified) | 0.47 (≈ 1.28 µM) | > 64 | –
55 | COc1ncccc1-c1c[nH]c(C(=O)NC2C3CC4CC(C3)CC2C4)c1 (stereo unspecified) | < 0.016 | – | Stability [7]: 0.63%; Stability [8]: Stable; selectivity ratio (in vitro): 737
56 | COc1ccc(-c2c[nH]c(C(=O)NC3C4CC5CC(C4)CC3C5)c2)c(OC)c1 (stereo unspecified) | 0.24 (≈ 0.631 µM) | > 64 | –
57 | O=C(NC1C2CC3CC(C2)CC1C3)c1cc(-c2ccncc2Cl)c[nH]1 (stereo unspecified) | < 0.016 | 58.7 (≈ 165 µM) | Stability [7]: 73.4%; Stability [8]: Stable; selectivity ratio (in vitro): 3670
58 | O=C(NC1CCCCCCC1)c1cc(-c2ccc(Cl)cc2Cl)c[nH]1 | 0.23 (≈ 0.63 µM) | – | –
